The record followed here is patent US8435976B2, “4-substituted pyridin-3-yl-carboxamide compounds and methods of use” (F. Hoffmann-La Roche, priority 2009, dated 2013).

Test [1] concerns MM1.S cells. The test is described as follows: MM1.S cell proliferation, 72 hours (Cell Titer Glo). The test is classed as cell-based. The note with it: Homo sapiens. Put shortly:
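BaF3 parental cells (2 k/well, with 2 ng/mL mIL-3) were treated overnight, and MM1.S cells (10 k/well) were treated for 72 h at 37 °C. Viability was read by CellTiter-Glo luminescence. IC50/EC50 values were calculated from the luminescence data.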
A general note: Cellular ATP, detected with luciferase, serves as a proxy for viable cell number.

In test [2] the test system is multiple myeloma cell line MM.1S. As to the kind of experiment: MM.1S 3 day proliferation assay, single agents and combinations (Cell-Titer Glo). The test is classed as cell-based. The note with it: FIG. 1. As for the experimental part: The in vitro potency of the combinations of formula I compounds with chemotherapeutic agents was measured by the cell proliferation assay of Example 11 and the results are compiled in Example iii. The CellTiter-Glo® Luminescent Cell Viability Assay (commercially available from Promega Corp., Madison, Wis.) is a homogeneous assay method based on the recombinant expression of Coleoptera luciferase (U.S. Pat. No. 5,583,024; U.S. Pat. No. 5,674,713; U.S. Pat. No. 5,700,670) and determines the number of viable cells in culture based on quantitation of the ATP present, an indicator of metabolically active cells (Crouch et al (1993) J. Immunol. Meth. 160:81-88; U.S. Pat. No. 6,602,677). The CellTiter-Glo® Assay was conducted in 96 or 384 well format, making it amenable to automated high-throughput screening (HTS) (Cree et al (1995) AntiCancer Drugs 6:398-404). The homogeneous assay procedure involves adding the single reagent (CellTiter-Glo® Reagent) directly to cells cultured in serum-supplemented medium. Cell washing, removal of medium and multiple pipetting steps are not required. The system detects as few as 15 cells/well in a 384-well format in 10 minutes after adding reagent and mixing.
The homogeneous “add-mix-measure” format results in cell lysis and generation of a luminescent signal proportional to the amount of ATP present. […] Viable cells are reflected in relative luminescence units (RLU). […] Data can be recorded by luminometer or CCD camera imaging device. The luminescence output is presented as relative light units (RLU), measured over time.
The combination index (CI) score is calculated by the Chou and Talalay method (Chou, T. and Talalay, P. (1984) Adv. Enzyme Regul. 22:27-55). […] The strength of synergy is assessed according to Chou and Talalay. […]
The in vitro cell survival and proliferation assay (Cell-Titer Glo, Promega) measured viable cells over varying inhibitor concentrations (10^−3 to 10 μMolar, Relative Units, wherein a Relative Unit equals 0.3 micromolar for Compound 3, 0.3 micromolar for Formula A, and 0.1 micromolar for Formula B). […]

Where two headings read alike, the source gives them in different places.

For the compound `Nc1sc(-c2c(F)cccc2F)nc1C(=O)Nc1cnccc1N1CCC[C@H](N)C1` [Example 3, (S)-5-amino-N-(4-(3-aminopiperidin-1-yl)pyridin-3-yl)-2-(2,6-difluorophenyl)thiazole-4-carboxamide], the EC50 in test [1] (72 hours, read-out: Prolif MM1S ATP (EC50)) is 49.7 nM; in test [1] (Table 3, read-out: MM1.s), 200 nM. Besides, the “lowest level reached by dose-response curve, of control value” in test [2] is on record as “does not fully reach 0% of the control value”.
